Test system: human liver microsomes, metabolic stability half-life
Assay: NCATS Human Liver Microsomal (HLM) Stability Profiling
Conditions: higher = more stable; screened at 1 µM (by protocol)
Source text: Assay submitter (PI): Dr. Pranav Shah
NIH Center for Advancing Translational Sciences
Pharmacokinetic issues were the leading cause of drug attrition, accounting for approximately 40% of all cases before the turn of the century. To this end, several high-throughput in vitro assays like microsomal stability have been developed to evaluate the pharmacokinetic profiles of compounds in early stages of drug discovery. At NCATS, a single-point rat liver microsomal (RLM) stability assay is used as a Tier I assay, while human liver microsomal (HLM) stability is employed as a Tier II assay. While it is beneficial to have compound libraries screened for HLM stability, the increasing magnitude of hits routinely generated, and the time- and re-source-intensive nature of the assay makes it important to find alternatives. One strategy is to rely on in silico models that have been developed using data generated from these assays. Herein, we describe the development of an HLM stability prediction model using our in-house dataset of ~7,000 compounds, employing both traditional and advanced machine learning methods. Additionally, the strong correlation between our RLM and HLM data was further reinforced by the fact that our HLM model performance improved after adding RLM stability predictions as an input descriptor. […] The best model along with a subset of our dataset has been made publicly accessible on the NCATS@ADME website for the benefit of the greater drug discovery community.
Microsomal Stability Assay
The substrate depletion method, also called the in vitro t1/2 method was used to analyze test compounds. Incubation and liquid handling were carried out using a previously described method (Shah et al., 2016). Briefly, each reaction mixture (110 µL) consisted of a test article (1 µM), human liver microsomes (0.5 mg/mL), and NADPH regenerating system in phosphate buffer at pH 7.4. Samples were incubated in 384-well plates at 37 degrees C for 0, 5, 10, 15, 30 and 60 min. At each time point, 10 µL of the incubation mixture was aspirated into another 384-well plate which contained cold acetonitrile (ACN) with internal standard (albendazole). All plates were centrifuged at 3000 rpm for 20 min at 4 degrees C, and the supernatants were transferred to a 384-well injection plate. Sample quantification and analysis was performed using a previously described method (Shah et al., 2016, Siramshetty et al., 2020).
1: Shah, P. et al. An Automated High-Throughput Metabolic Stability Assay Using an Integrated High-Resolution Accurate Mass Method and Automated Data Analysis Software. Drug Metab Dispos 44, 1653-1661 (2016).
2: Siramshetty et al. Retrospective assessment of rat liver microsomal stability at NCATS: data and QSAR models. Sci Rep 26;10(1):20713 (2020).

In the case of NC(=O)c1ccccc1Nc1ccnc(Nc2cccc(O)c2)n1, the half-life is reported as 21.8 min.

For COC1CCN(C(=O)c2cc(Cc3n[nH]c(=O)c4ccccc34)ccc2F)CC1, the half-life was 76.1 min.

CC1(C)CC(=O)c2c(C(F)(F)F)nn(-c3ccc(C(N)=O)c(NC4CCC(OC(=O)CN)CC4)c3)c2C1 (stereo not given) was tested, and the half-life was 1.57 min.

For N#Cc1c[nH]c2c(C(=O)N3CCN(CCc4ccc(F)cc4)CC3)cccc12, the half-life was 29.8 min.

For C[C@@H]1CCC[C@H](C)N1CCCC(O)(c1ccccc1)c1ccccn1 (stereo not given in full), the half-life was > 120 min.

In the case of CC(C)(C)c1ccc(-c2nc(SCC(=O)Nc3ccc(Cl)cc3)[nH]c(=O)c2C#N)cc1, the half-life is reported as 19.2 min.

COCCCNC(=O)C(=O)Nc1c2c(nn1-c1cccc(Cl)c1)CSC2 gave a half-life of 24.9 min.

CCOc1ccc(Nc2nc(C)c(NC(=O)c3ccc(C)cc3)c(Nc3ccc(OCC)cc3)n2)cc1 was tested, and the half-life was 12.2 min.

COC(=O)c1ccc([C@H]2c3[nH]c4ccccc4c3C[C@H](C(=O)OC)N2C(=O)CCl)cc1 gave a half-life of 8.55 min.

For CN(C)CCN1C(=O)c2ccccc2N(C)c2ccccc21, the half-life was > 120 min.

Cc1nn2c(c1-c1ccccc1Oc1ccccc1)N(Cc1ccc(C(=O)O)cc1)CCC2 gave a half-life of 6.19 min.

In the case of NC(=O)c1ccccc1O, the half-life is reported as > 120 min.

With N[C@@H](CC(=O)Nc1ccc(Oc2cc(F)c(F)cc2Br)cc1)C(=O)O the half-life was > 120 min.

With Clc1cccc(C(c2ccc3nc[nH]c3c2)n2ccnc2)c1 (stereo not given) the half-life was > 120 min.

Work on O=C(Nc1cccc(C(F)(F)F)c1)Nc1cc(S(=O)(=O)NC2CC2)ccc1-c1ccsc1 yielded a half-life of 4.46 min.

For CNS(=O)(=O)c1ccc(Cc2c(-c3cccc(-c4ccccc4)c3)[nH]n(-c3nc(C(=O)O)cs3)c2=O)cc1, the half-life was > 120 min.

In the case of CCC1=c2cc(OC(=O)N3CCC(N4CCCCC4)CC3)ccc2=NC2=C3C=C4C(COC(=O)[C@]4(O)CC)C(=O)N3CC21 (stereo not given in full), the half-life is reported as > 120 min.

Molecule O=C(CCC1CCN(Cc2ccccc2)CC1)c1ccc2c(c1)NCCCC2 has a half-life of 5.22 min.

Molecule O=C(CSc1nnc(-c2cccc(F)c2)c(-c2cccc(F)c2)n1)NC1CCCCC1 has a half-life of 10.8 min.

With Nc1nc(O)c(C2=C3C(=Nc4ccccc43)C(=O)NCC2)[nH]1 the half-life was > 120 min.

COc1cc(N2CCN(C)CC2)ccc1Nc1nccc(-c2cn(C)c3cnccc23)n1 was tested, and the half-life was > 120 min.

In the case of NC(=Nc1ccc(CCNCc2cccc(Cl)c2)cc1)c1cccs1, the half-life is reported as > 120 min.

For CC(=O)Nc1cccc(O)c1, the half-life was > 120 min.

Molecule Cc1cccc(N(C)C(=S)Oc2ccc3c(c2)CCC3)c1 has a half-life of 1.94 min.

With CCOCCn1c(C2CCN(CCc3ccc(C(C)(C)C(=O)O)cc3)CC2)nc2ccccc21 the half-life was > 120 min.

Work on CC(=O)OCC(=O)[C@@]1(O)CC[C@H]2[C@@H]3CCC4=CC(=O)C=C[C@]4(C)[C@@]3(F)[C@@H](O)C[C@@]21C yielded a half-life of 87.5 min.

NC1=NCC2c3ccccc3Cc3ccccc3N12 (stereo not given) was tested, and the half-life was > 120 min.

With CN1CCC(=C2c3ccccc3CCc3cccnc32)CC1 the half-life was > 120 min.

For Cc1nc2c(C(F)(F)F)cccc2nc1-c1ccc(-c2cccc(S(C)(=O)=O)c2)cc1, the half-life was > 120 min.

CC(C)(C)C1CCC(CC2=C(O)c3ccccc3C(=O)C2=O)CC1 (stereo not given) was tested, and the half-life was > 120 min.

CCN1CC(CCN2CCOCC2)C(c2ccccc2)(c2ccccc2)C1=O (stereo not given) showed a half-life of 33.9 min.

In the case of CCN1CCC[C@H]1CNC(=O)c1c(O)c(Cl)cc(Cl)c1OC, the half-life is reported as > 120 min.

In the case of COc1ccc(C(=O)n2c(C)c(Cc3cccc(O[C@@H](C)C(=O)O)c3)c3cc(OC(F)(F)F)ccc32)cc1, the half-life is reported as > 120 min.

With CCOc1ccc(S(=O)(=O)NCCc2sc(-c3ccc(C)cc3)nc2C)cc1 the half-life was 4.09 min.

For Oc1ccccc1-c1nnco1, the half-life was 43.3 min.

Cc1noc(C)c1-c1cc(O)cc(C(O)c2ccccc2)c1 (stereo not given) was tested, and the half-life was 46.2 min.

CCCOc1ccc(-c2nc(OC)c3ccccc3n2)cc1 gave a half-life of 14.7 min.

Work on c1ccc(-c2csc(N3CCOCC3)n2)cc1 yielded a half-life of 3.95 min.

CC(C)NC(=O)COc1cccc(-c2nc(Nc3ccc4[nH]ncc4c3)c3ccccc3n2)c1 gave a half-life of 23.4 min.

Fc1ccc(-c2nc(C3CCNCC3)sc2-c2ccnc(NC3CC3)n2)cc1 was tested, and the half-life was > 120 min.

O=Nc1c(-c2c(O)[nH]c3cc(Br)ccc23)[nH]c2ccccc12 showed a half-life of 19 min.

For CCOC(=O)c1c(C)nn(-c2cccc([N+](=O)[O-])c2)c1C, the half-life was 2.08 min.

With FC(F)(F)Oc1ccc(-c2ccc3nnc(C(F)(F)F)n3c2)cc1 the half-life was > 120 min.

Molecule CCOP(=S)(OCC)Oc1cc(Cl)c(Br)cc1Cl has a half-life of 57.6 min.

For CCCCNc1ncc2c(-c3ccc(F)cc3)nn(CC3CCC(N)CC3)c2n1 (stereo not given), the half-life was > 120 min.

For COc1cc(Nc2nc3ccccc3nc2NS(=O)(=O)c2ccc(NC(=O)c3ccc(C)c(OC)c3)cc2)cc(OC)c1, the half-life was > 120 min.

For CC(=O)c1ccc(N2CCN(c3ncnc4c3cnn4C)CC2)cc1, the half-life was 109 min.

Molecule NC(N)=NS(=O)(=O)c1ccc(N)cc1 has a half-life of 78.3 min.

CC(C)(CNC(=O)c1cccc(-c2noc(C(F)(F)F)n2)c1)c1coc(-c2ccccc2)n1 showed a half-life of 33.1 min.

CN(C)CCC[C@@]1(c2ccc(F)cc2)OCc2cc(C#N)ccc21 was tested, and the half-life was > 120 min.

With Fc1ccccc1-c1nc2ccn(Cc3ccc(-c4ccc(C(F)(F)F)cc4C(F)(F)F)nn3)cc-2n1 the half-life was > 120 min.

Molecule O=C(O)Cc1sc(-c2ccccc2)nc1-c1ccc(Cl)cc1 has a half-life of 2.82 min.

Work on Cc1ccc(-n2c(SCc3ccccc3F)nc3[nH]ncc3c2=O)cc1C yielded a half-life of 21.6 min.

Work on CCN1CCN(C(=O)c2ccc3c(c2)N(Cc2cc(C)ccc2C)C(=O)c2ccccc2S3(=O)=O)CC1 yielded a half-life of 1.24 min.

In the case of COCC(=O)Nc1c(I)c(C(=O)NCC(O)CO)c(I)c(C(=O)N(C)CC(O)CO)c1I (stereo not given), the half-life is reported as 84.2 min.

CC1(C)OC[C@H](NC(=O)Nc2ccc(Br)cc2Br)[C@H](c2ccccc2)O1 was tested, and the half-life was 1 min.

N#CC1C(=O)Nc2scc(-c3ccc(-c4ccccc4O)cc3)c2C1=O (stereo not given) was tested, and the half-life was > 120 min.

Work on O=C(CCCCCn1c(=O)c2sccc2n(CC(=O)Nc2cccc(Cl)c2)c1=O)NCc1ccc2c(c1)OCO2 yielded a half-life of 9.36 min.

O=C(O)c1ccc(CN2CCOC[C@H]2c2ncc(-c3ccc(F)cc3)[nH]2)cc1 was tested, and the half-life was > 120 min.

With CCOc1ccccc1OCCN[C@H](C)Cc1ccc(OC)c(S(N)(=O)=O)c1 the half-life was > 120 min.

With CCc1ccc(C(=O)C(C)CN2CCCCC2)cc1 (stereo not given) the half-life was 4.87 min.

For COc1ccc(C(=O)NC2CCN(c3cnn(CC4CC4)c(=O)c3)CC2)c(OC)n1, the half-life was > 120 min.

O=C1CN2CCOC2(c2ccccc2Cl)c2cc(Cl)ccc2N1 (stereo not given) showed a half-life of 4.56 min.

Work on O=C(N[C@H]1CCN(C(=O)c2cc(C(F)(F)F)cc(C(F)(F)F)c2)[C@H](Cc2ccc(Cl)cc2)C1)c1ccnc2ccccc12 yielded a half-life of 49.2 min.

Work on Cc1nn(CC(=O)NCCc2ccccc2)c(=O)c2c1sc1ccccc12 yielded a half-life of 6.82 min.

With NC(=NCCCCCCN=C(N)/N=C(\N)Nc1ccc(Cl)cc1)/N=C(\N)Nc1ccc(Cl)cc1 the half-life was > 120 min.

In the case of Fc1ccc(CN2CCC(Nc3ccc(C(F)(F)F)nn3)CC2)cc1F, the half-life is reported as 42.3 min.

O=C(CCc1ccccc1)N1CCC(O)(Cn2cnc3cc(Cl)ccc3c2=O)CC1 gave a half-life of 3.16 min.

In the case of COc1ccc(Nc2nnc(-c3ccc(C)c(S(=O)(=O)NCc4nc5ccccc5[nH]4)c3)c3ccccc23)cc1, the half-life is reported as 5.8 min.

With CCN(CC)Cc1cccc(/C=C/c2nc3ccc(F)cc3c(=O)n2-c2ccccc2Cl)n1 the half-life was 25.8 min.

CN(C(=O)c1ccc(F)cc1C(F)(F)F)C1CCN(c2nnc(-c3ccnn3C)c3ccccc23)CC1 gave a half-life of 30.3 min.

O=C(NOCC1CC1)c1ccc(F)c(F)c1Nc1ccc(I)cc1Cl was tested, and the half-life was 11.2 min.

With CCOC(=O)c1ncn2c1CN(C)C(=O)c1cc(F)ccc1-2 the half-life was > 120 min.

Molecule Fc1ccc([C@@H]2CCNC[C@H]2COc2ccc3c(c2)OCO3)cc1 has a half-life of 71.3 min.

Cc1nc2c3ccccc3nc(NNC(=O)CCC(=O)N3CCN(c4ccccc4)CC3)n2n1 showed a half-life of 107 min.

For CCN(CC)C(=O)c1ccc(Nc2nc(OCC3CCCCC3)c3[nH]cnc3n2)cc1, the half-life was 8.96 min.

For COc1ccc(CCN(C)CCC[C@@](C#N)(c2cc(OC)c(OC)c(OC)c2)C(C)C)cc1OC, the half-life was 7.68 min.

For C=CCOC1=C(OCC(O)CNC(C)C)CCCC1 (stereo not given), the half-life was > 120 min.

COc1ccc(C(=O)NC(c2ccccc2Cl)c2cc(Cl)c3cccnc3c2O)cc1 (stereo not given) gave a half-life of 37.1 min.

CN1CC(=O)N/C1=N/C(=O)Nc1cccc(Cl)c1 gave a half-life of 24.1 min.

Molecule CC[C@]1(O)C[C@@H]2CN(CCc3c([nH]c4ccccc34)[C@@](C(=O)OC)(c3cc4c(cc3OC)N(C)[C@H]3[C@@](O)(C(=O)OC)[C@H](OC(C)=O)[C@]5(CC)C=CCN6CC[C@]43[C@@H]65)C2)C1 has a half-life of 54.6 min.

Work on CN1CCC2=C(C1)c1ccccc1Cc1ccccc12 yielded a half-life of 95 min.

Cc1cc(C)cc(NC(=O)Cc2ccc(OC(C)(C)C(=O)O)cc2)c1 was tested, and the half-life was > 120 min.

Work on O=C(O)c1ccc[n+]([O-])c1 yielded a half-life of 106 min.

In the case of CN1C(=O)C(Cc2ccc3ccccc3c2)N=C(c2ccc(O)cc2)c2cc(Cl)ccc21 (stereo not given), the half-life is reported as > 120 min.
